Assay [1] in a line: Relative inhibition of PDE4 from rat kidney and PDE5 from human platelets.
Assay [2] in a line: Relative inhibition of PDE6 from bovine retina and PDE5 from human platelets.
Assay [3] is described as follows: Relative inhibition of PDE2 from rat kidney and PDE5 from human platelets.
Assay [4] is described as follows: Relative inhibition of PDE1 from bovine heart and PDE5 from human platelets.
Assay [5] addresses cGMP-specific 3',5'-cyclic phosphodiesterase (Homo sapiens, UniProt O76074). Briefly: Inhibition of PDE5 from human platelets.

With `CCCOc1ccc(S(=O)(=O)N2CC[C@@H](N(C)C)C2)cc1-c1nc(O)c2c(NCc3ccc(F)cc3)nc3nn(Cc4ccc(OC)cc4)cc3c2n1`, the Ratio in assay [1] is 2500; in assay [2], 15; in assay [3] it was over 10000.

Consider `CCCOc1ccc(S(=O)(=O)N2CC[C@@H](N(C)C)C2)cc1-c1nc(O)c2c(NCc3ccc(F)cc3)[nH]c3nncc-3c2n1`, for which the Ratio in assay [1] was over 100000; in assay [2] it was 160.

For `CCCOc1ccc(S(=O)(=O)N2CC[C@@H](N(C)C)C2)cc1-c1nc(O)c2c[nH]c3nncc-3c2n1`, the Ratio in assay [1] was determined as 3200; in assay [4], 400; in assay [2], 22; in assay [3], 2000.

Consider `CCCOc1ccc(S(=O)(=O)N2CC[C@@H](N(C)C)C2)cc1-c1nc(O)c2c(Cl)nc3nn(Cc4ccc(OC)cc4)cc3c2n1`, for which the Ratio turned out to be 310 in assay [1], 130 in assay [4], 17 in assay [2] and 1200 in assay [3].

A word on the IC50: it is the point on the concentration scale where inhibition reaches its midpoint. As to `CCCOc1ccc(S(=O)(=O)N2CC[C@@H](N(C)C)C2)cc1-c1nc2c(c(Cl)nc3nn(Cc4ccc(OC)cc4)cc32)c(=O)[nH]1`, in assay [5], the concentration for half-maximal inhibition (IC50) was 13 nM.

With `CCCOc1ccc(S(=O)(=O)N2CC[C@@H](N(C)C)C2)cc1-c1nc2c(c(NCc3ccc(F)cc3)nc3nn(Cc4ccc(OC)cc4)cc32)c(=O)[nH]1`, the IC50 in assay [5] was determined as 1.7 nM.

On to `CCCOc1ccc(S(=O)(=O)N2CC[C@@H](N(C)C)C2)cc1-c1nc(O)c2c(NCc3ccc(OC)c(Cl)c3)[nH]c3nncc-3c2n1`, for which the Ratio was 180 in assay [2] and over 10000 in assay [3].

With `CCCOc1ccc(S(=O)(=O)N2CC[C@@H](N(C)C)C2)cc1-c1nc2c(c(NCc3ccc(F)cc3)nc3n[nH]cc32)c(=O)[nH]1`, the IC50 in assay [5] amounted to 0.31 nM.

For `CCCOc1ccc(S(=O)(=O)N2CC[C@@H](N(C)C)C2)cc1-c1nc2c(cnc3n[nH]cc32)c(=O)[nH]1`, the midpoint of inhibition in assay [5], the IC50, lay at 2.1 nM. Compared with the last compound, the IC50 is about 6.8-fold higher.

The values are drawn from ChEMBL document CHEMBL1133954, “The discovery of novel, potent and selective PDE5 inhibitors” (Bioorg Med Chem Lett, 2001).
